In patent US20240116946A1 (Gilead Sciences, Inc., priority 2022, published 2024):
Where two headings read alike, the source gives them in different places.

Legend:
[1] = molecular target: recombinant SARS-CoV-2 Main protease (Mpro) (Severe acute respiratory syndrome coronavirus 2 (2019-nCoV) (SARS-CoV-2), UniProt P0DTD1); test: Cov Mpro Biochemical IC50 Assay
SARS-CoV-2-NLuc = test: microbe, parasite or virus in culture; assay type: cell-based, SARS Coronavirus 2
[2] = recombinant SARS-CoV-2 Mpro, fluorogenic peptide substrate, read-out: MPro IC50
[3] = Severe acute respiratory syndrome coronavirus, 48 h, read-out: MPro EC50
[4] = recombinant SARS-CoV-2 Mpro 7.5 nM, fluorogenic peptide substrate 40 μM, read-out: MPro IC50
[5] = Severe acute respiratory syndrome coronavirus, 48 h; read-out: MPro EC50

Row | Compound | IC50 [1, 2] [nM] | EC50 (SARS-CoV-2-NLuc; [3]) [nM] | IC50 [1, 4] [nM] | other results
1 | COC(=O)[C@H]1C[C@@H]1c1cncc(-n2c(=O)[nH]c3cc(-c4ccccc4Cl)sc3c2=O)c1C [Example 136] | > 50000 | 11100 |  | 
2 | COc1cc(-c2cc3[nH]c(=O)n(-c4cncc5cccc(C)c45)c(=O)c3s2)c(Cl)cc1F (single isomer, unassigned) [Example 995, 6-(2-chloro-4-fluoro-5-methoxyphenyl)-3-(5-methylisoquinolin-4-yl)thieno[3,2-d]pyrimidine-2,4(1H,3H)-dione] |  |  | 3.27 | EC50 (SARS-CoV-2-NLuc; read-out: MPro EC50): 1.26 nM
3 | NC(=O)c1cncc(-c2cccc(Cl)c2-c2ccc3c(=O)n(-c4cncc5ccccc45)c(=O)[nH]c3c2)c1 [Example 185] | < 3.01 | 489 |  | 
4 | COc1cc(Cl)c(-c2cc3c(s2)c(=O)n(-c2cncc4cnn(C)c24)c(=O)n3CCC#N)cc1F [Example 792] |  | 12.3 | 8.29 | 
5 | COc1ccc(Cl)c(-c2cc3[nH]c(=O)n(-c4cncc5scc(C)c45)c(=O)c3s2)c1 (single isomer, unassigned) [Example 1053, 6-(2-chloro-5-methoxyphenyl)-3-(3-methylthieno[2,3-c]pyridin-4-yl)thieno[3,2-d]pyrimidine-2,4(1H,3H)-dione] |  |  | 83.3 | EC50 (SARS-CoV-2-NLuc; read-out: MPro EC50): 48.5 nM
6 | COc1cc(-c2cc3c(s2)c(=O)n(-c2cncc4cnn(C)c24)c(=O)n3CCC#N)c(Cl)cc1Cl [Example 1017, 3-[6-(2,4-dichloro-5-methoxy-phenyl)-3-(1-methylpyrazolo[4,3-c]pyridin-7-yl)-2,4-dioxo-thieno[3,2-d]pyrimidin-1-yl]propanenitrile] |  |  | 5.92 | EC50 (SARS-CoV-2-NLuc; [5]): 5.25 nM
7 | COc1cc(-c2cc3[nH]c(=O)n(-c4cncc5ccn(C)c45)c(=O)c3cc2OC)c(C#N)cc1F [Example 683] |  | 43.7 | 8.88 | 
8 | O=c1[nH]c2cc(-c3cc4c(cc3Cl)OC(F)(F)O4)sc2c(=O)n1-c1cncc2ccccc12 [Example 348] | 4760 | 8930 |  | 
9 | CS(=O)(=O)N1CCN(c2ccc3cncc(-n4c(=O)[nH]c5cc(-c6ccccc6Cl)sc5c4=O)c3c2)CC1 [Example 421] |  | 38.8 | 4.42 | 
10 | COc1ccc(Cl)c(-c2cc3[nH]c(=O)n(-c4cncc5cc(C(C)(C)O)sc45)c(=O)c3s2)c1 [Example 512, 6-(2-chloro-5-methoxy-phenyl)-3-[2-(1-hydroxy-1-methyl-ethyl)thieno[3,2-c]pyridin-7-yl]-1H-thieno[3,2-d]pyrimidine-2,4-dione] |  | 26.9 | 5.71 | 
11 | COc1ccc(Cl)c(-c2cc3[nH]c(=O)n(-c4cncc(CCC(=O)N5CCOCC5)c4)c(=O)c3s2)c1 [Example 575, 6-(2-chloro-5-methoxy-phenyl)-3-[5-(3-morpholino-3-oxo-propyl)-3-pyridyl]-1H-thieno[3,2-d]pyrimidine-2,4-dione] |  |  | 6.66 | EC50 (SARS-CoV-2-NLuc; [5]): 235 nM
12 | Cc1nn(C(C)(C)C)cc1-c1cccc(Cl)c1-c1ccc2c(=O)n(-c3cncc4ccccc34)c(=O)[nH]c2c1 [Example 274] | 83.5 | 95.7 |  | 
13 | COc1cc(-c2cc3c(s2)c(=O)n(-c2cncc4ccccc24)c(=O)n3Cc2cc(F)c(F)c(F)c2)c(Cl)cc1F [Example 1099, 6-(2-chloro-4-fluoro-5-methoxy-phenyl)-3-(4-isoquinolyl)-1-[(3,4,5-trifluorophenyl)methyl]thieno[3,2-d]pyrimidine-2,4-dione] |  |  | 388 | EC50 (SARS-CoV-2-NLuc; [5]): 921 nM
14 | COC(=O)[C@H]1C[C@@H]1c1cncc(-n2c(=O)[nH]c3cc(-c4ccccc4Cl)ccc3c2=O)c1C [Example 126] | > 50000 | > 50000 |  | 
15 | COc1cnc(Cl)c(-c2cc3c(s2)c(=O)n(-c2cncc4cnn(C)c24)c(=O)n3CCC#N)c1 (single isomer, unassigned) [Example 1090, 3-(6-(2-chloro-5-methoxypyridin-3-yl)-3-(1-methyl-1H-pyrazolo[4,3-c]pyridin-7-yl)-2,4-dioxo-3,4-dihydrothieno[3,2-d]pyrimidin-1(2H)-yl)propanenitrile] |  |  | 1.5 | EC50 (SARS-CoV-2-NLuc; read-out: MPro EC50): 5.22 nM
16 | O=C1COc2ccc(-c3cccc(Cl)c3-c3ccc4c(=O)n(-c5cncc6ccccc56)c(=O)[nH]c4c3)cc2N1 [Example 304] | 11.5 | 20.5 |  | 
17 | Cn1nnc2cncc(-n3c(=O)c4sc(-c5cc(F)c(F)cc5Cl)cc4n(CCC#N)c3=O)c21 [Example 796] |  |  | 40.5 | EC50 (SARS-CoV-2-NLuc; [5]): 124 nM
18 | COc1cc(-c2cc3c(s2)c(=O)n(-c2cncc4nnn(C5CC5)c24)c(=O)n3CC2(C#N)CC2)c(Cl)cc1F [Example 692] |  | 2.44 | 4.35 | 
19 | Cc1ccc(-c2ccc3c(=O)n(-c4cncc5ccccc45)c(=O)[nH]c3c2)c(Cl)c1 [Example 192] | > 50000 | 3890 |  | 
20 | COCCOc1c(C)cncc1-n1c(=O)[nH]c2cc(-c3ccccc3Cl)sc2c1=O [Example 214] | 11.1 |  |  | EC50 (SARS-CoV-2-NLuc; [5]): 20.1 nM
21 | CC(C)(C)c1cncc(-n2c(=O)[nH]c3cc(-c4ccccc4Cl)sc3c2=O)c1 [Example 577] |  |  | > 50000 | EC50 (SARS-CoV-2-NLuc; [5]): 12100 nM

Row | Compound | IC50 [1, 2] [nM] | EC50 (SARS-CoV-2-NLuc; [3]) [nM] | IC50 [1, 4] [nM] | other results
22 | Cn1cc(-c2cccc(Cl)c2-c2cc3[nH]c(=O)n(-c4cncc5ccccc45)c(=O)c3s2)c(C(F)(F)F)n1 [Example 280, 6-(2-chloro-6-(1-methyl-3-(trifluoromethyl)-1H-pyrazol-4-yl)phenyl)-3-(isoquinolin-4-yl)thieno[3,2-d]pyrimidine-2,4(1H,3H)-dione] | 5.97 | 15.9 |  | 
23 | Cc1c2c(-n3c(=O)c4sc(-c5ccc(F)cc5Cl)cc4n(CCC#N)c3=O)cncc2nn1C (single isomer, unassigned) [Example 972, 3-(6-(2-chloro-4-fluorophenyl)-3-(2,3-dimethyl-2H-pyrazolo[3,4-c]pyridin-4-yl)-2,4-dioxo-3,4-dihydrothieno[3,2-d]pyrimidin-1(2H)-yl)propanenitrile] |  |  | > 1000 | EC50 (SARS-CoV-2-NLuc; read-out: MPro EC50): > 1000 nM
24 | COc1ccc(Cl)c(-c2cc3[nH]c(=O)n(-c4cncc5cnn(CC(F)(F)F)c45)c(=O)c3s2)c1 [Example 500] |  | 42.6 | 9.12 | 
25 | O=c1[nH]c2cc(-c3c(Cl)cccc3-c3ccnnc3)sc2c(=O)n1-c1cncc(C2CC2)c1 [Example 616] |  | 320 | 6.92 | 
26 | O=c1[nH]c2cc(-c3ccccc3Cl)ccc2c(=O)n1-c1cncc(C(F)(F)F)c1 [Example 578] |  |  | > 50000 | EC50 (SARS-CoV-2-NLuc; [5]): 9870 nM
27 | Cn1ncc2cncc(-n3c(=O)c4sc(-c5cc(F)c(F)cc5Cl)cc4n(CCC#N)c3=O)c21 [Example 790, 3-[6-(2-chloro-4,5-difluoro-phenyl)-3-(1-methylpyrazolo[4,3-c]pyridin-7-yl)-2,4-dioxo-thieno[3,2-d]pyrimidin-1-yl]propanenitrile] |  | 14.3 | 12.6 | 
28 | N#Cc1cc(-c2cccc(Cl)c2-c2ccc3c(=O)n(-c4cncc5ccccc45)c(=O)[nH]c3c2)cnc1N1CCOCC1 [Example 277] | 124 | 57 |  | 
29 | COc1cc(-c2cc3[nH]c(=O)n(-c4cncc(C)c4Cl)c(=O)c3s2)c(Cl)cc1F [Example 1080] |  | 36 | 20.4 | 
30 | Cn1ncc2cncc(-n3c(=O)[nH]c4cc(-c5c(F)ccc6[nH]ncc56)sc4c3=O)c21 [Example 1014, 6-(5-fluoro-1H-indazol-4-yl)-3-(1-methylpyrazolo[4,3-c]pyridin-7-yl)-1H-thieno[3,2-d]pyrimidine-2,4-dione] |  |  | > 1000 | EC50 (SARS-CoV-2-NLuc; [5]): > 1000 nM
31 | Cc1noc(C)c1-c1cc2[nH]c(=O)n(-c3cncc(C4CC4)c3)c(=O)c2s1 [Example 368] | 411 |  |  | EC50 (SARS-CoV-2-NLuc; [5]): 1920 nM
32 | COc1ccc(Cl)c(-c2cc3[nH]c(=O)n(-c4cncc5ccc(N6CC(F)(F)OC(F)(F)C6)cc45)c(=O)c3s2)c1 [Example 229] | 22.5 | 28.9 |  | 
33 | COc1cc(-c2cc3c(s2)c(=O)n(-c2cncc(C)n2)c(=O)n3CCC#N)c(Cl)cc1F [Example 894] |  | 6.55 | 3.2 | 
34 | O=c1[nH]c2cc(-c3cc(F)c(F)cc3Cl)sc2c(=O)n1-c1cncc2ccccc12 [Example 286] | 34.8 | 60.3 |  | 
35 | COc1ccc(Cl)c(-c2cc3[nH]c(=O)n(-c4cncc5ccc(N6CCn7nnc(C)c7C6)cc45)c(=O)c3s2)c1 [Example 606] |  | 28.1 | < 2.54 | 
36 | COc1cc(-c2cc3c(s2)c(=O)n(-c2cncc4c2c(C(F)(F)F)nn4COCC[Si](C)(C)C)c(=O)n3CCC#N)c(Cl)cc1F [Example 1046, 3-(6-(2-chloro-4-fluoro-5-methoxyphenyl)-2,4-dioxo-3-(3-(trifluoromethyl)-1-((2-(trimethylsilyl)ethoxy)methyl)-1H-pyrazolo[3,4-c]pyridin-4-yl)-3,4-dihydrothieno[3,2-d]pyrimidin-1(2H)-yl)propanenitrile] |  |  |  | IC50 ([1]; MPro IC50, recombinant SARS-CoV-2 Mpro 7.5 nM, fluorogenic peptide substrate 40 μM): 35.8 nM; EC50 (SARS-CoV-2-NLuc; [5]): 129 nM
37 | O=c1[nH]c2cc(-c3c(Cl)cccc3-c3ccc4c(c3)OCCO4)sc2c(=O)n1-c1cncc2ccccc12 [Example 354] | 45.6 | 12.8 |  | 
38 | O=c1[nH]c2cc(-c3ccccc3Cl)sc2c(=O)n1-c1cncc(OCC(F)(F)F)c1 [Example 381] | 5070 | 145 |  | 
39 | COc1cnc(C)c(-c2cc3[nH]c(=O)n(-c4cncc5ccccc45)c(=O)c3s2)c1 [Example 718] |  | 371 | 106 | 
40 | COc1cc(-c2cc3c(s2)c(=O)n(-c2cncc4cccc(C)c24)c(=O)n3CCC#N)c(Cl)cc1F (atropisomer, axis not shown) [Example 920] |  | 4.25 | 5.5 | 
41 | O=c1[nH]c2cc(-c3c(Cl)cccc3Cl)sc2c(=O)n1-c1cncc2ccccc12 [Example 110, 6-(2,6-dichlorophenyl)-3-(isoquinolin-4-yl)thieno[3,2-d]pyrimidine-2,4(1H,3H)-dione] | 372 |  |  | EC50 (SARS-CoV-2-NLuc; [5]): 275 nM
42 | COc1cc(-c2cc3[nH]c(=O)n(-c4c(C)ccnc4F)c(=O)c3s2)c(Cl)cc1F [Example 738] |  |  | 13.4 | EC50 (SARS-CoV-2-NLuc; [5]): 26.2 nM
